Experiment [1] deals with T1, ACE (EC 3.4.15.1) purified from the rabbit lungs (Oryctolagus cuniculus, UniProt P12822).
T1 construct: ACE (EC 3.4.15.1) purified from the rabbit lungs; purchased Sigma-Aldrich Japan K.K; host or cells: rabbit lung (tissue-purified)
T1 sequence (P12822 34-1310): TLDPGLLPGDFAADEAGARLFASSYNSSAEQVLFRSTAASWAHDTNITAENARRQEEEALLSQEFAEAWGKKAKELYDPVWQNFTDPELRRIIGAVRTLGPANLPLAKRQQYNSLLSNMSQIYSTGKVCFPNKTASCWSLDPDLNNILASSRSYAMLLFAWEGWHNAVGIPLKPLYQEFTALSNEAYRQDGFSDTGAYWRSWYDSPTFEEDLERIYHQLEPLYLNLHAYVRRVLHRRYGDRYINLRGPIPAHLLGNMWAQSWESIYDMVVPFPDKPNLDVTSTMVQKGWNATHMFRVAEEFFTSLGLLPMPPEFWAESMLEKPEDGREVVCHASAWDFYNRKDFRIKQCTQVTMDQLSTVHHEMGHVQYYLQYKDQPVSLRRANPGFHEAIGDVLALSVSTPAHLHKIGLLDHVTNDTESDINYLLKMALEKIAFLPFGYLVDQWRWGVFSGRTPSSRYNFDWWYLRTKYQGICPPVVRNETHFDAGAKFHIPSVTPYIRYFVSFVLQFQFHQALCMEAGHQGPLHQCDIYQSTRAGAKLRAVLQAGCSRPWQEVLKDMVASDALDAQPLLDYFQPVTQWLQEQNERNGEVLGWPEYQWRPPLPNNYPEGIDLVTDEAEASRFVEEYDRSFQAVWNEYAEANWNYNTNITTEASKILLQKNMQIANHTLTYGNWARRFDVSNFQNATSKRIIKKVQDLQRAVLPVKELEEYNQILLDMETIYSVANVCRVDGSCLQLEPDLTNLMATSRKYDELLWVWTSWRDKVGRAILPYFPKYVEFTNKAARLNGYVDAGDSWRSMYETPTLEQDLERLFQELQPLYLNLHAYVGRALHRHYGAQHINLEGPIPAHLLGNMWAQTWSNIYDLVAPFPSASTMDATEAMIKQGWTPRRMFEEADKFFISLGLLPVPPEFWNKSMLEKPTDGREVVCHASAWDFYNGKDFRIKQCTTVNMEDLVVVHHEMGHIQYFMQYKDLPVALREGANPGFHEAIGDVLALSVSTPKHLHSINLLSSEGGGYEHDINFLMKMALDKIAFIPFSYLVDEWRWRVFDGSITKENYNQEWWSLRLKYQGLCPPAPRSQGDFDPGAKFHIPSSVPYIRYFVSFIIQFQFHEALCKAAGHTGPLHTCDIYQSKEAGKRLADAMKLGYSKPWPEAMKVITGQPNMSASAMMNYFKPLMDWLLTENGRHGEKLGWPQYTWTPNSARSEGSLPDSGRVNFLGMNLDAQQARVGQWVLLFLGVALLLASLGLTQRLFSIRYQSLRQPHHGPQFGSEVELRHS
As to the kind of experiment: biochemical. From the text:
ACE (EC 3.4.15.1) purified from the rabbit lungs was obtained from Sigma-Aldrich Japan K.K. (Tokyo, Japan). Hippuryl-L-histidyl-L-leucine (Hip-His-Leu) was obtained from the Peptide Institute (Osaka, Japan). Ammonium formate, borate, diethyl ether, ethyl acetate, formate, hydrochloric acid (HCl), HPLC-grade acetonitrile, sodium chloride (NaCl), potassium chloride (KCl), potassium dihydrogen phosphate (KH2PO4), magnesium acetate (Mg(CH3COO)2), magnesium sulfate (MgSO4), Nonidet P-40, sodium hydrogen carbonate (NaHCO3), sucrose, and tris(hydroxymethyl)aminomethane were purchased from Kanto Chemical Co., Inc. (Tokyo, Japan). Trifluoroacetic acid (TFA) was purchased from Watanabe Chemical Industries, Ltd. (Hiroshima, Japan).
The in vitro ACE inhibition assay was performed using the method described previously. […] Then, 100 µL of commercial ACE (6.0 mU) was added, and the mixture was incubated at 37°C for 30 min. The reaction was stopped by 250 µL of 1.0 N HCl. Released hippuric acid (Hip) was extracted with 1.0 mL ethyl acetate and quantified by HPLC according to our previous report.

For experiment [2], the target named is T2, ACE in thoracic aorta tissue (Rattus norvegicus, UniProt P47820).
T2 sequence (P47820 36-1313): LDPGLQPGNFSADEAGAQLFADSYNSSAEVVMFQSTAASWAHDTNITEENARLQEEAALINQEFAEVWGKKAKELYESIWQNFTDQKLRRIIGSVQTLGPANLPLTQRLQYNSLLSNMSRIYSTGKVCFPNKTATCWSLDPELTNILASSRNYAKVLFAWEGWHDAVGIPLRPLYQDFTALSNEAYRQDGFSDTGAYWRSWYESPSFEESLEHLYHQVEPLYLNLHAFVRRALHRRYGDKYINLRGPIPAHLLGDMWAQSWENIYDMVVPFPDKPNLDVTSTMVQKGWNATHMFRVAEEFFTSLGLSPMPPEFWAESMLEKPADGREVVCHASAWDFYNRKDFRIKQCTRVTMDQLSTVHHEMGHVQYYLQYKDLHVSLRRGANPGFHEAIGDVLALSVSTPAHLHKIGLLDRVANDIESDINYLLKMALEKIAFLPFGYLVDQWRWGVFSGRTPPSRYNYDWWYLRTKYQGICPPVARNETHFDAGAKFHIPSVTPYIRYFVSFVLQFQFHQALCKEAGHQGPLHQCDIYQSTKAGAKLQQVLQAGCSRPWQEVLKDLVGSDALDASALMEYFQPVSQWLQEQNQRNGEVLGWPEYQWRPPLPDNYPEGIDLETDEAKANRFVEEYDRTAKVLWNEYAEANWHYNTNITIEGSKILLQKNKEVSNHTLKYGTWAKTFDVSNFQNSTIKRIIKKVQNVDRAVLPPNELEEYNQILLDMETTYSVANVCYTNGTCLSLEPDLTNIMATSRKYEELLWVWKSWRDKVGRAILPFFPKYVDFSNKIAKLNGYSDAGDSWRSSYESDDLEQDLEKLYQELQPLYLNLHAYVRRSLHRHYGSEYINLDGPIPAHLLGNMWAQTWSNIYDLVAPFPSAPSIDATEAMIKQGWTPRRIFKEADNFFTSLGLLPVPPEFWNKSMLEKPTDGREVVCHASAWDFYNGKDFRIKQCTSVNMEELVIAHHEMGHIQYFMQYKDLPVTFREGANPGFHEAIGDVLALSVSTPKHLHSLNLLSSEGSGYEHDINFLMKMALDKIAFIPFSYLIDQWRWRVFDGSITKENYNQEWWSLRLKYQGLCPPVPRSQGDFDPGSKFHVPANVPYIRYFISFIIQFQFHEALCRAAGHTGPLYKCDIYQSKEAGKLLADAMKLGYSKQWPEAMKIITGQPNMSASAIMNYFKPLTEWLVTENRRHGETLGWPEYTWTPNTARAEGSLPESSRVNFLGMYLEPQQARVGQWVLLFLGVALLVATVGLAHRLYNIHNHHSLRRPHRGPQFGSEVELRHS
As to the kind of experiment: Ex vivo ACE inhibition assay: Ang II production in endothelium-denuded thoracic aorta rings (UPLC-MS).
Description: Isolation of the thoracic aorta from SHRs (n = 12) and preparation of endothelium-denuded aortic rings was performed as described above. Endothelium was removed to eliminate the influence of endothelium-derived vasodilators.
After 30 min incubation, 1.0 mL of 0.20 µM Ang I was added and the aortic tension was recorded. When vasoconstriction plateaued, Krebs solution in the organ bath was transferred to a test tube and heated at 90°C for 5 min to stop the enzyme reaction; the heat-treated samples were dried under vacuum and frozen at −80°C until UPLC-MS analysis. The aorta rings were used in the BCA assay to express Ang II production as pmol/mg-protein.
Vacuum-dried samples were dissolved in 500 µL acetonitrile/4.0 mM ammonium formate (5∶95 v/v) with 4.0 mM formic acid prior to UPLC-MS analysis, performed at the CREFAS (Collaborated Research Center for Food Functions, Faculty of Agriculture, Shinshu University); Quattro micro API (MS) with an ACQUITY UPLC (Waters Co., USA) was used. Separation was conducted at 35°C using a CHEMCOBOND 5-ODS-W reversed-phase column (4.6×150 mm; ChemcoPlus Scientific Co., Ltd. Kyoto, Japan). […] Mass spectra were acquired in electrospray ionization (ESI) mode using 3500 V capillary voltage, 30 V cone voltage, 350 L/h N2 gas flow (desolvation), 50 L/h N2 gas flow (cone), 100°C source temperature, and 350°C desolvation temperature. […] For each sample, measurements were performed in triplicate; the results were expressed as the mean ± S.E.

Experiment [3] deals with T3, Ang II-mediated vasoconstriction (Rattus norvegicus, UniProt P47820).
T3 sequence (P47820 36-1313): T2 sequence (P47820 36-1313)
Description: Ex vivo ACE inhibition assay: Ang II-mediated vasoconstriction of endothelium-denuded thoracic aorta rings. To be noted: 0.2 µM Ang I, read-out: EC50 of suppression of Ang II-mediated vasoconstriction. More on the design: species or system spontaneously hypertensive rats (SHRs).

Experiment [4] relates to systolic and diastolic blood pressure. The settings on record: SHRs; ref [8]; cited from earlier work.
The next experiment has as its system ACE. On the set-up: method as in PMID 7673515. The settings on record: ref [7], [8]; read-out: in vitro ACE-inhibitory activity IC50; cited from earlier work.
Where [5] appears, read: Hip-His-Leu substrate, mean ± S.E., n = 3, read-out: In vitro ACE-inhibitory activity IC50.

Where two headings read alike, the source gives them in different places. Where a SMILES comes first, the peptide text is derived from it.

Consider `CC(C)[C@H](N)C(=O)N[C@@H](C)C(=O)N[C@@H](CCC(=O)O)C(=O)O` [VAE] (H-Val-Ala-Glu-OH), for which, in experiment [1] (setting [5]), the IC50 (usually the concentration that gives 50% inhibition) stood at 55900 ± 1900 µM.

As to `CC(C)[C@H](NC(=O)[C@@H](N)CC(=O)O)C(=O)N[C@@H](Cc1c[nH]c2ccccc12)C(=O)N[C@@H](Cc1ccc(O)cc1)C(=O)O` [DVWY] (H-DVWY-OH), the half-maximal inhibitory concentration (IC50) was determined as 690 ± 40 µM in experiment [1] and 70.5 µM in experiment [2]. In addition, in experiment [3], the concentration giving a half-maximal response (EC50) (commonly the concentration giving half of the maximal effect) amounted to 68.2 µM.

In the case of `C[C@@H](O)[C@H](NC(=O)[C@@H](N)Cc1c[nH]c2ccccc12)C(=O)N[C@@H](Cc1ccccc1)C(=O)N[C@@H](CCCNC(=N)N)C(=O)O` [WTFR] (H-WTFR-OH), the IC50 in experiment [1] is 6700 ± 500 µM; in experiment [2], 5.64 µM. For the same molecule, the “reduction of Ang II production” value in experiment [2] (at 10 µM, endothelium-denuded rings, 0.2 µM Ang I) was 59%. The concentration giving a half-maximal response (EC50) in experiment [3] turned out to be 36.8 µM.

As to Val-Tyr [VY], the “minimum effective BPL dose” value in experiment [4] is reported as 1.0 mg/kg. For the same molecule, the IC50 with ACE is 26 µM.

As for `C[C@H](NC(=O)[C@H](CC(=O)O)NC(=O)[C@@H](N)Cc1ccccc1)C(=O)N[C@@H](CCCNC(=N)N)C(=O)N[C@H](C(=O)O)[C@@H](C)O` [FDART] (H-FDART-OH), the concentration for half-maximal inhibition (IC50) in experiment [1] came to 1900 ± 100 µM; in experiment [2], 41.7 µM. The EC50 in experiment [3] came to 53.6 µM.

Turning to `CC(C)[C@H](N)C(=O)N[C@H](C(=O)NCC(=O)O)C(C)C` [VVG] (H-Val-Val-Gly-OH), in experiment [1] (setting [5]), the IC50 stood at 39600 ± 5700 µM.

In the case of `NC(=O)CC[C@H](NC(=O)[C@@H](N)Cc1ccccc1)C(=O)O` [FQ], the results for the IC50 in experiment [1] (setting [5]) and in experiment [2] were 7400 ± 600 µM and 90.9 µM, respectively. Moreover, the concentration for a half-maximal effect (EC50) in experiment [3] is 85.1 µM.

(Values after article PMC4164440, “Blood Pressure-Lowering Peptides from Neo-Fermented Buckwheat Sprouts: A New Approach to Estimating ACE-Inhibitory Activity” (PLoS ONE, 2014).)
